# Values of other authors as cited in patent US20240300988A1, “CRYSTALLINE FORMS OF PENTAAZA MACROCYCLIC RING COMPLEX” (Galera Labs, LLC, priority 2023, published 2024).
# Tested on: VEGFr inhibitor-induced pulmonary disease
# Conditions: rat model; Tuder et al., Am. J. Respir. Cell Mol. Biol., 29, 88-97 (2003)
smiles,measurement,value
[Cl][Mn][Cl].c1cc2nc(c1)CN[C@H]1CCCC[C@@H]1NCCN[C@H]1CCCC[C@@H]1NC2 [GC4419],effect on VEGFr inhibitor-induced pulmonary disease,attenuate VEGFr inhibitor-induced pulmonary disease
